For orientation: mortality means the share of the test organisms that died.

The text below walks through data of US9055743B2, “Alpha, beta-unsaturated imines” (BAYER INTELLECTUAL PROPERTY GMBH, priority 2010, dated 2015).

Common to all, as to assay type: in vivo
One assay has as its system Boophilus microplus. Description: Boophilus microplus test (BOOPMI injection). To be noted: 20 μg/animal, injection into the abdomen, after 7 days. The protocol:
Boophilus microplus Test (BOOPMI Injection)
Solvent: Dimethyl Sulphoxide
To produce a suitable preparation of active compound, 10 mg of active compound are mixed with 0.5 ml of solvent and the concentrate is diluted with solvent to the desired concentration. The solution of active compound is injected into the abdomen (Boophilus microplus), and the animals are transferred into dishes and kept in a climatized room. The activity is assessed by […] of fertile eggs.
After 7 days, the effect in % is determined 100% means that none of the ticks has laid any fertile eggs.

The test system of assay [1] is cat fleas (Ctenocephalides felis, fully sensitive laboratory strain). Nature of the assay: Contact test against fleas in-vitro (CTECFE contact). Conditions: for activity against cat fleas: 500 g/ha, after 48 h. The protocol: Contact Test Against Fleas In-Vitro (CTECFE Contact)
An amount of 0.9 mg of active compound is weighed out, and 1 ml of acetone is added.
Of this acetone solution, either […] are transferred directly into roll-necked test tubes or an aliquot is diluted with 4 parts of acetone 1:5. For its part, 250 μl of this dilution are pipetted into roll-necked test tubes, or the dilution is diluted further, etc., until the desired number of dilution steps is reached.
The roll-necked test tubes containing the solution of the active compound in acetone are immediately coated in a fume cupboard by 2 h of swing rotation at 30 rpm. After evaporation of the solvent, the active compound contained in the acetone gives, at the highest concentration tested, an active compound content of 500 g/ha (or 500 μg/dm^2) on the surface of the test tube.
10-20 Adult cat fleas (Ctenocephalides felis, fully sensitive laboratory strain) anesthetized with CO2 are transferred into the test tubes prepared in this manner, and the test tubes are closed with a plastic roll-necked lid provided with fine holes.
The test tubes are stored vertically at room temperature and humidity for 24 or 48 h. After 24 and 48 h, the activity of the active compound applied is determined by comparison with an acetone-treated control. Here, an observed normal activity for all fleas corresponds to 0% activity, a strongly restricted or uncoordinated (knock-down) movement or death of all fleas corresponds to 100% activity.

Assay [2] has as its system larvae of the mustard beetle (Phaedon cochleariae). Nature of the assay: Phaedon test (PHAECO spray treatment). Conditions: for activity (beetle larvae killed) / pest or weed control at 500 g/ha: 500 g/ha, spray, after 7 days; for pest or weed control at 500 g/ha: Phaedon cochleariae, 168 h, read-out: activity (beetle larvae killed). The protocol: Phaedon Test ([…] Spray Treatment) Solvents: 78.0 parts by weight of acetone • • 1.5 parts by weight of dimethylformamide Emulsifier: 0.5 part by weight of alkylaryl polyglycol ether To produce a suitable preparation of active compound, 1 part by weight of active compound is mixed with the stated amounts of solvents and emulsifiers, and the concentrate is diluted with emulsifier-containing water to the desired concentration. Discs of Chinese cabbage leaves (Brassica pekinensis) are sprayed with an active compound preparation of the desired concentration and, after drying, populated with larvae of the mustard beetle (Phaedon cochleariae).

Assay [3] relates to caterpillars of the army worm (Spodoptera frugiperda). Nature of the assay: Spodoptera frugiperda test (SPODFR spray treatment). To be noted: for activity (caterpillars killed) / pest or weed control at 500 g/ha: 500 g/ha, spray, after 7 days; for pest or weed control at 500 g/ha: Spodoptera frugiperda, 168 h, read-out: activity (caterpillars killed). The method, then:
Spodoptera frugiperda Test (SPODFR Spray Treatment) Solvents: 78.0 parts by weight of acetone • • 1.5 parts by weight of dimethylformamide Emulsifier: 0.5 part by weight of alkylaryl polyglycol ether
(§1) To produce a suitable preparation of active compound, 1 part by weight of active compound is mixed with the stated amounts of solvents and emulsifier, and the concentrate is diluted with emulsifier-containing water to the desired concentration.
Discs of maize leaves (Zea mays) are sprayed with an active compound preparation of the desired concentration and, after drying, populated with caterpillars of the army worm (Spodoptera frugiperda) besetzt.
After 7 days, the activity in % is determined. 100% means that all caterpillars have been killed; 0% means that none of the caterpillars have been killed.

Assay [4] has as its system green peach aphid (Myzus persicae). Nature of the assay: Myzus test (MYZUPE spray treatment). To be noted: for activity (aphids killed) / pest or weed control at 500 g/ha: 500 g/ha, spray, after 6 days; for pest or weed control at 500 g/ha: Myzus persicae, 144 h, read-out: activity (aphids killed). The method, then:
Myzus Test (MYZUPE Spray Treatment) Solvents: 78 parts by weight of acetone • • 1.5 parts by weight of dimethylformamide Emulsifier: 0.5 part by weight of alkylaryl polyglycol ether
as §1
Discs of Chinese cabbage leaves (Brassica pekinensis) which are infested by all stages of the green peach aphid (Myzus persicae) are sprayed with an active compound preparation of the desired concentration.
After 6 days, the activity in % is determined. 100% means that all aphids have been killed; 0% means that none of the aphids have been killed.

For assay [5], the system named is greenhouse red spider mite (Tetranychus urticae). Nature of the assay: Tetranychus test; OP-resistant (TETRUR spray treatment). Conditions: for activity (spider mites killed) / pest or weed control at 500 g/ha: 500 g/ha, spray, after 6 days; for pest or weed control at 500 g/ha: Tetranychus urticae, 144 h, read-out: activity (spider mites killed). The method, then: Tetranychus Test; OP-Resistant (TETRUR Spray Treatment) Solvents: 78.0 parts by weight of acetone • • 1.5 parts by weight of dimethylformamide Emulsifier: 0.5 part by weight of alkylaryl polyglycol ether
as §1
Discs of bean leaves (Phaseolus vulgaris) infested by all stages of the greenhouse red spider mite (Tetranychus urticae) are sprayed with an active compound preparation of the desired concentration.
After 6 days, the activity in % is determined. 100% means that all spider mites have been killed; 0% means that none of the spider mites have been killed.

Another assay has as its system Ctenocephalides felis. Nature of the assay: Ctenocephalides felis oral test (CTECFE). Conditions: 100 ppm in citrated cattle blood, after two days. The protocol:
Ctenocephalides Felis Oral Test (CTECFE)
Solvent: 1 Part by Weight of Dimethyl Sulphoxide
To produce a suitable preparation of active compound, 10 mg of active compound are mixed with 0.5 ml of dimethyl sulphoxide. Part of the concentrate is diluted with citrated cattle blood, and the desired concentration is prepared.
About 20 unfed adult fleas (Ctenocephalides felis) are placed into a chamber which is closed at the top and bottom with gauze. A metal cylinder whose bottom end is closed with parafilm is placed onto the chamber. The cylinder contains the blood/active compound preparation, which can be taken up by the fleas through the parafilm membrane. After two days, the kill in % is determined 100% means that all fleas have been killed; 0% means that none of the fleas have been killed.

Assay [6] relates to Anopheles gambiae (homocygus kdr). Nature of the assay: Anopheles test (ANPHGB surface treatment). To be noted: for knock-down activity: 100 mg/m^2, two hours after contact, exposition 30 minutes; for mortality at 100 mg/m2: Anopheles gambiae, read-out: activity (mortality in %). The method, then: Anopheles Test (ANPHGB Surface Treatment) Solvent: Acetone
To produce a suitable preparation of active compound, the active compound is dissolved in acetone (2 mg/ml). The active compound preparation is pipetted onto a glazed tile and, after drying, adult mosquitoes of the species Anopheles gambiae (homocygus kdr) are placed onto the treated tile. The exposition time is 30 minutes.
(§2) Two hours after contact to the treated surface, the knock-down proportion of the test animals in % is determined.
24 hours after contact to the treated surface, the mortality in % is determined. Here, 100% means that all mosquitoes have been killed; 0% means that none of the mosquitoes has been killed.

Another assay relates to Aedes aegypti. Nature of the assay: Aedes test (AEDSAE surface treatment). Conditions: for knock-down activity: 100 mg/m^2, two hours after contact, exposition 30 minutes; for mortality at 100 mg/m2: Aedes aegypti, read-out: activity (mortality in %). The method, then:
Aedes Test (AEDSAE Surface Treatment)
To produce a suitable preparation of active compound, the active compound is dissolved in acetone (2 mg/ml). The active compound preparation is pipetted onto a glazed tile and, after drying, adult mosquitoes of the species Aedes aegypti are placed onto the treated tile. The exposition time is 30 minutes.
as §2
24 hours after contact to the treated surface, the mortality in % is determined Here, 100% means that all mosquitoes have been killed; 0% means that none of the mosquitoes has been killed.

Setting [7] is: active compound concentration 500 g/ha.
The mark [8] stands for this setting: active compound concentration 100 g/ha.

For `Cc1ccc(N=C2C(=CSc3ccccc3)C(c3ccccc3)c3ccccc32)cc1` (mixture of isomers) [Example 1-20], the “activity (100% = none of the ticks has laid any fertile eggs)” value in the assay on Boophilus microplus is recorded as 100%. The “activity against cat fleas” value in [1] is recorded as 100%. The “activity (beetle larvae killed)” value in [2] worked out at 100%. For the same molecule, the “activity (caterpillars killed)” value in assay [3] was 100%. The “activity (aphids killed)” value in assay [4] is given as 100%. Besides, in assay [5], the “activity (spider mites killed)” value came out at 100%.
With `Cc1ccc(N=C2C(=CSc3ccc(F)cc3)C(C)c3cc(F)ccc32)cc1C` (mixture of isomers) [Example 1-63], in the assay on Boophilus microplus, the “activity (100% = none of the ticks has laid any fertile eggs)” value amounted to 100%. Moreover, the “activity (kill in %)” value in the assay with Ctenocephalides felis is given as 90%. Further, the “activity against cat fleas” value in [1] was determined as 100%. For the same molecule, in assay [2], the “activity (beetle larvae killed)” value is reported as 100%. Besides, the “activity (caterpillars killed)” value in assay [3] came to 100%. For the same molecule, the “activity (aphids killed)” value in assay [4] came out at 100%. The “activity (spider mites killed)” value in [5] stood at 100%.
On to `Cc1ccc(N=C2C(=CSc3ccccc3)COc3ccccc32)cc1` [Example 1-7], for which the “activity against cat fleas” value in assay [1] is 100%. In [2], the “activity (beetle larvae killed)” value is given as 100%. Further, in [3], the “activity (caterpillars killed)” value came out at 100%. Besides, the “activity (aphids killed)” value in [4] came out at 100%. The “activity (spider mites killed)” value in assay [5] is recorded as 100%. In addition, the knock-down activity in assay [6] is listed as 100%; in the assay on Aedes aegypti, 85%.
As to `COc1ccc2c(c1)CCC(=CSc1ccc(F)cc1)C2=Nc1ccc(C)cc1` [Example 1-17], the “activity against cat fleas” value in assay [1] stood at 100%. In addition, in assay [2], the “activity (beetle larvae killed)” value stood at 100%. The “activity (caterpillars killed)” value in [3] is on record as 100%. Also, the “activity (aphids killed)” value in assay [4] turned out to be 100%. In assay [5], the “activity (spider mites killed)” value was found to be 100%. Also, the values for the knock-down activity (in assay [6]; in the assay on Aedes aegypti) were 95% and 100%, respectively.
Turning to `Cc1ccc(N=C2C(=CSc3ccc(F)cc3)C(C)(C)c3ccccc32)cc1` [Example 1-21], the “activity against cat fleas” value in assay [1] was determined as 100%. Moreover, the “Kill rate in % after 2 days” value in assay [1] (active compound concentration 0.032 g/ha) and in assay [1] (active compound concentration 0.16 g/ha) was 100% throughout. Also, the pest or weed control at 500 g/ha in assay [2], in assay [3], in assay [4] and in assay [5] was 100% in each case. Also, the “Kill rate in % after 7 days” value in assay [2] (setting [7]) was 100%; in [3] (setting [8]), 83%. Besides, the “Kill rate in % after 6 days” value in assay [4] (setting [8]), in assay [4] (setting [7]), in assay [5] (setting [8]) and in assay [5] (setting [7]) was 100% each time. Also, the mortality at 100 mg/m2 (in assay [6]; in the assay on Aedes aegypti) was 100% each time. For the same molecule, the “Kill rate in % after 24 hours” value in assay [6] (active compound concentration 8 g/ha) came to 100%.
In the case of `CCc1ccc(N=C2C(=CSc3ccc(F)cc3)CCc3ccccc32)cc1` [Example 1-39], in [1], the “activity against cat fleas” value was 100%. Also, in assay [2], the “activity (beetle larvae killed)” value was 100%. In [3], the “activity (caterpillars killed)” value is reported as 100%. Moreover, the “activity (aphids killed)” value in assay [4] is recorded as 100%. Also, the “activity (spider mites killed)” value in [5] is 80%. The knock-down activity (in [6]; in the assay on Aedes aegypti) was 100% in each case.
Take `Cc1ccc(N=C2C(=CSc3ccc(F)cc3)CCc3ccccc32)c(C)c1` [Example 1-43]: in assay [2], the “activity (beetle larvae killed)” value turned out to be 100%. In assay [3], the “activity (caterpillars killed)” value worked out at 100%. Also, the “activity (aphids killed)” value in assay [4] turned out to be 90%. The “activity (spider mites killed)” value in assay [5] came to 80%. The knock-down activity (in assay [6]; in the assay with Aedes aegypti) was 100% each time.
For `CCc1ccc2c(c1)CCC(=CSc1ccc(F)cc1)C2=Nc1ccc(C)cc1` [Example 1-84], the “activity against cat fleas” value in [1] amounted to 100%. Further, in assay [2], the “activity (beetle larvae killed)” value is reported as 100%. Further, the “activity (caterpillars killed)” value in assay [3] was 100%. Moreover, the “activity (aphids killed)” value in assay [4] is reported as 100%. Moreover, in assay [5], the “activity (spider mites killed)” value was determined as 100%. Also, the knock-down activity (in assay [6]; with Aedes aegypti) was 100% throughout.
As for `Cc1cccc(N=C2C(=CSc3ccc(F)cc3)CCc3ccccc32)c1` [Example 1-88], the “activity (beetle larvae killed)” value in assay [2] amounted to 100%. The “activity (caterpillars killed)” value in [3] is listed as 100%. Besides, in assay [4], the “activity (aphids killed)” value was determined as 100%. Further, the “activity (spider mites killed)” value in assay [5] is 100%. For the same molecule, the knock-down activity in [6] turned out to be 100%; with Aedes aegypti it was 85%.
On to `Cc1ccc(N=C2c3ccccc3CCC2C(Sc2ccccc2)Sc2ccccc2)cc1` (centres unmarked) [Example 2-1], for which the pest or weed control at 500 g/ha in assay [2] is 100%; in [3], 100%; in assay [4], 90%; in [5], 80%. Also, the knock-down activity (in assay [6]; with Aedes aegypti) was 100% in each case. For the same molecule, the mortality at 100 mg/m2 (in [6]; in the assay with Aedes aegypti) was 100% throughout.
